In article PMC9380430, “Aaptamine – a dual acetyl – and butyrylcholinesterase inhibitor as potential anti-Alzheimer’s disease agent” (Pharmaceutical Biology, 2022):

What was measured:
[1] = system: AlCl3-induced zebrafish AD model; test: AlCl3-induced zebrafish AD model, behaviour assay; type: in vivo; conditions: + 100 μM AlCl3, 3 d; for speed change after light stimulus: model 1.38 mm/s, control 2.56 mm/s; for movement distance during 60 min: model 4968 mm, control 9219 mm
Method: Briefly, the 3–6 dpf zebrafish larvae were randomly placed in a 6-well microplate at a density of 30 zebrafish per well and treated with 100 μM AlCl3 to establish the AD model. […] The control group was maintained in the reverse osmosis water with 0.5% DMSO while the model group was treated with 100 μM AlCl3 containing 0.5% DMSO. […] After 3 d, the distance and speed change after light stimulus alteration were analysed and recorded for three rhythmic light within 60 min (10 min darkness and 10 min illumination alternately) using viewpoint behaviour analyser (Zebralab V3, ViewPoint Life Sciences Co., Ltd., Lyons, France). The protocol for this study involving animals and their maintenance was approved by the Animal Care and Use Committee of Shandong Academy of Sciences (No.00612). Efficacy on motility (%)=[Dsample group−Dmodel group]/[Duntreated group−Dmodel group]×100.
D is the movement distance of zebrafish during 60 min.
Efficacy on speed change (%) = [Vsample group – Vmodel group]/[Vuntreated group – Vmodel group] × 100. V is the average velocity (mm/s) of different groups which was obtained by recording the movement distance of every min for every zebrafish during 60 min. All data are expressed as mean ± SEM and analysed by GraphPad Prism version 7.0 software (Graphpad Software Inc., La Jolla, CA). Differences between groups were examined for statistical significance using one‐way ANOVA with Tukey’s post hoc test.

BuChE [2] = molecular target: T1, BuChE (Equus caballus, UniProt P81908); test: Surface plasmon resonance (SPR) assay, BuChE; type: binding; conditions: Biacore T100, steady-state affinity fitting; read-out: Kd (equilibrium dissociation constant) for BuChE
T1 construct: BuChE (10 U/mg from horse serum); purchased Shanghai Yuanye Bio-Technology (Shanghai, China); host or cells: horse serum
T1 sequence (P81908 whole entry): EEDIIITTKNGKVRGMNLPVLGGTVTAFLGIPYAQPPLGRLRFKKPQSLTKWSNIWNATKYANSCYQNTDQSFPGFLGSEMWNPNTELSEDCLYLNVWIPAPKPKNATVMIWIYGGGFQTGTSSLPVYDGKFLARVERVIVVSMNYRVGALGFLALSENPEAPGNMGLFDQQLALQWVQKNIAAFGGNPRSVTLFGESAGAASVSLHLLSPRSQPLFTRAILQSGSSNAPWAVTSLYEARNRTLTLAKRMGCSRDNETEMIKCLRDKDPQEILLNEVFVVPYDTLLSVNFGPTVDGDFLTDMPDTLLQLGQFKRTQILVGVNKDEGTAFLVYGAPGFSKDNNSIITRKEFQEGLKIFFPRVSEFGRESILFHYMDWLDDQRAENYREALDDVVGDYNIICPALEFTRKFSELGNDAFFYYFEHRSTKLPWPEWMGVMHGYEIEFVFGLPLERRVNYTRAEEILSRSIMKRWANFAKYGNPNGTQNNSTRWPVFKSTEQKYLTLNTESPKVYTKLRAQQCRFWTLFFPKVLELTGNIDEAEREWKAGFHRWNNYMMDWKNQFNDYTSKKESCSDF
Method: (§1) The experiments were carried out using Biacore T100 with the Sensor Chip CM5. The chip surface was activated following standard NHS + EDC with Biacore PBS-EP (0.02 M Phosphate buffer with 2.7 mM KCl, 0.137 M NaCl and 0.05% P20) buffer used as the running buffer. 7000 RU of untagged AChE or 6600 RU of untagged BuChE was immobilized per flow cell and 100 μg/mL AChE or 20 μg/mL BuChE was injected. The cholinesterase protein is coupled to the sensor chip CM5 by amine coupling. 1 M (pH 8.5) ethanolamine-HCl was used to seal off the active group. Aaptamine was injected into the protein channel and blank channel at the following doses: 100, 50, 25, 12.5, 6.25, 3.125 and 0.39 μM at a flow rate of 30 μL/min. The protein binding period was set to 1 min, and the dissociation period was set to 2 min. The affinity was obtained by fitting the binding data using Biacore T100 Evaluation Software version 3.0 (Chicago, USA).

[3] = system: nicotinic acetylcholine receptors (nAChRs); conditions: ref Kudryavtsev et al. [2014]; cited from earlier work
AChE [4] = molecular target: T2, AChE (Electrophorus electricus, UniProt O42275); test: Surface plasmon resonance (SPR) assay, AChE; type: binding; conditions: Biacore T100, steady-state affinity fitting; read-out: Kd (equilibrium dissociation constant) for AChE
T2 construct: AChE (200 U/g from electric eel); purchased Macklin Inc. (Shanghai, China)
T2 sequence (O42275 24-633): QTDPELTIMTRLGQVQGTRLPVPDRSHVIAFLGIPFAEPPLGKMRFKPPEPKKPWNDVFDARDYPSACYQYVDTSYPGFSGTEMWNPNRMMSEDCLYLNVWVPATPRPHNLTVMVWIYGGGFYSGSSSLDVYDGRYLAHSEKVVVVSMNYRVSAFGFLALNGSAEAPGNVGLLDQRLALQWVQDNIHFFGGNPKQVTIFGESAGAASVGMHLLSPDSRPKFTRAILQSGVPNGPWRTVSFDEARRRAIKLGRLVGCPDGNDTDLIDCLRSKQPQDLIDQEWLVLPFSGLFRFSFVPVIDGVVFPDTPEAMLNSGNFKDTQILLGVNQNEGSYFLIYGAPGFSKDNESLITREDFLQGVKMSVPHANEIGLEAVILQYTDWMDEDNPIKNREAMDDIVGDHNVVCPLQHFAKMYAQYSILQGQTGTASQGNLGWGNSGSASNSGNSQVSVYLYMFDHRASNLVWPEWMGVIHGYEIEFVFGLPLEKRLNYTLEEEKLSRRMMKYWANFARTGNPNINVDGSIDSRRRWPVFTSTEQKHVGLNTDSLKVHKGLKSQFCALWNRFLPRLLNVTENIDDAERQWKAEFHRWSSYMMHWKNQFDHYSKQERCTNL
Method: as §1

AChE [5] = molecular target: T2, AChE; test: Kinetic study of AChE inhibition (Lineweaver-Burk, secondary plot); type: biochemical
Method: (§2) To clarify the mechanism of action of aaptamine, reciprocal plots of 1/[velocity] vs. 1/[substrate] (Lineweaver-Burk plots) were constructed at different concentrations of the substrate ATChI or BTChI (0, 1.25, 2.5, 5, 10 and 25 mM) and aaptamine (0, 5, 20 and 40 μM). Meanwhile, the parallel experiment was also carried out without aaptamine. The remaining procedure was the same as that of described in cholinesterases inhibition assay. The data were plotted on a Lineweaver–Burk diagram using Microsoft Excel 2016 to reveal the mechanism of inhibition. The steady-state inhibition constant Ki (intercept on the x-axis) was determined by the secondary plot of slope vs. the concentrations of inhibitor.

[6] = system: nicotinic acetylcholine receptors (nAChRs); conditions: ref Kudryavtsev et al. [2014]; cited from earlier work; remark: listed apart in the source
AChE [7] = molecular target: T2, AChE; test: biochemical; conditions: substrate ATChI, 37 °C; read-out: IC50 against AChE
Method: (§3) AChE (200 U/g from electric eel) and 5,5′-dithiobis(2-nitrobenzoic acid) (DNTB) were purchased from Macklin Inc. (Shanghai, China). BuChE (10 U/mg from horse serum), acetylthiocholine iodide (ATChI) and butyrylthiocholine iodide (BTChI) were purchased from Shanghai Yuanye Bio-Technology (Shanghai, China).
(§4) The lyophilized powder of AChE and BuChE was dissolved in protein stabilizer (0.1 g BSA dissolved in 100 mL PBS) to form the storage concentration of 10 U/mL and then diluted to the required concentrations. […] After 30 min of incubation at 37 °C, 10 μL of substrate ATChI or BTChI (10 mM) were added and incubated at 37 °C for 30 min. […] For the blank control group, the assays were carried out with wells containing all components except AChE and BuChE. […] All experiments were performed in triplicate.

BuChE [8] = molecular target: T1, BuChE; test: biochemical; conditions: substrate BTChI, 37 °C; read-out: IC50 against BuChE
Method: as §3, §4

BuChE [9] = molecular target: T1, BuChE; test: Kinetic study of BuChE inhibition (Lineweaver-Burk, secondary plot); type: biochemical
Method: as §2

AChE [10] = conditions: ref Moodie et al. [2019]; read-out: IC50 against AChE (literature); cited from earlier work
BuChE [11] = conditions: ref Moodie et al. [2019]; read-out: IC50 against BuChE (literature); cited from earlier work

COc1cc2c(cc1OC)C(=O)C(CC1CCN(Cc3ccccc3)CC1)C2 (centres unmarked) [donepezil, reference compound]
dyskinesia recovery rate ([1]; 8 μM): 63.7%
efficacy on speed change ([1]; 8.0 μM): 63.6%
speed change after light stimulus ([1]; 8.0 μM): 2.13 mm/s
movement distance during 60 min ([1]; 8 μM): 7675 mm

COc1cc2ccnc3c2c(c1OC)NC=C3 [aaptamine]
Kd (BuChE [2]): 10.7 µM
inhibitory effect on nAChRs of humans [3]: weak inhibitory effect
dyskinesia recovery rate ([1]; 5 μM): 34.8%
efficacy on speed change ([1]; 5 μM): 34.7%
speed change after light stimulus ([1]; 5 μM): 1.79 mm/s
movement distance during 60 min ([1]; 5 μM): 6447 mm
dyskinesia recovery rate ([1]; 10 μM): 58.8%
efficacy on speed change ([1]; 10 μM): 58.5%
speed change after light stimulus ([1]; 10 μM): 2.07 mm/s
movement distance during 60 min ([1]; 10 μM): 7466 mm
dyskinesia recovery rate ([1]; 20 μM): 60.0%
efficacy on speed change ([1]; 20 μM): 60.2%
speed change after light stimulus ([1]; 20 μM): 2.09 mm/s
movement distance during 60 min ([1]; 20 μM): 7517 mm
Kd (AChE [4]): 87.6 µM
inhibition type towards AChE (AChE [5]; Lineweaver-Burk plots): mixed-type inhibition
Ki (AChE [5]; secondary plot of slope vs inhibitor concentration, substrate ATChI, read-out: steady-state inhibition constant Ki against AChE): 6.96 ± 0.04 µM
inhibitory effect on nAChRs of Torpedo californica [6]: weak inhibitory effect
IC50 (AChE [7]): 16 µM
IC50 (BuChE [8]): 4.6 µM
inhibition type towards BuChE (BuChE [9]; Lineweaver-Burk plots): mixed-type inhibition
Ki (BuChE [9]; secondary plot of slope vs inhibitor concentration, substrate BTChI, read-out: steady-state inhibition constant Ki against BuChE): 6.35 ± 0.02 µM

CCN(C)C(=O)Oc1cccc([C@H](C)N(C)C)c1 [rivastigmine]
IC50 (AChE [10]): […]
IC50 (BuChE [11]): […]
